Values of other authors in patent publication US20110274652A1, “Methods for Treating Hepatitis C Virus Infection” (VERTEX PHARMACEUTICALS INCORPORATED, priority 2008, published 2011).

System: Hepatitis C virus
Details: interferon alfa monotherapy, chronic hepatitis C

Substance: interferon alfa
- cases with long term remission: ~25%
